Experimental data reported in DBAASP.
Converted amounts (≈) assume the structure as drawn. One block for each compound: values may come before it.

What was measured:
Assay in all cases: ≥ marks a high value that may be exact or a test limit, other limits are often not marked, values filed in µg/mL are converted to µM
Leuconostoc lactis = test system: Leuconostoc lactis
Listeria innocua = test system: Listeria innocua
Micrococcus luteus = test system: Micrococcus luteus
Pasteurella multocida = test system: Pasteurella multocida
Pseudomonas haemolytica = test system: Pseudomonas haemolytica
[1] = test system: Staphylococcus aureus ATCC 25923
[2] = test system: Staphylococcus aureus ATCC 29213
[3] = test system: Staphylococcus epidermidis
Streptococcus uberis = test system: Streptococcus uberis
Escherichia coli KF111 = test system: Escherichia coli KF111
Escherichia coli KF130 = test system: Escherichia coli KF130
Escherichia coli UB1005 = test system: Escherichia coli UB1005
Escherichia coli = test system: Escherichia coli
[4] = test system: Pseudomonas aeruginosa H374
[5] = test system: Pseudomonas aeruginosa H744
[6] = test system: Pseudomonas aeruginosa K799
[7] = test system: Salmonella enterica subsp. enterica serovar Typhimurium ATCC 14028s
Staphylococcus aureus = test system: Staphylococcus aureus
[8] = test system: Acinetobacter baumannii ATCC 19606
[9] = test system: Bordetella bronchiseptica CUN 11844-99
[10] = test system: Brucella abortus 9.49 (per-)
[11] = test system: Escherichia coli ATCC 25922
[12] = test system: Escherichia coli CMCC 44102
[13] = test system: Pseudomonas aeruginosa ATCC 27853
[14] = test system: Pseudomonas aeruginosa CUN 4158-02
[15] = test system: Staphylococcus aureus ATCC 43300
[16] = test system: Staphylococcus aureus CMCC 26003
[17] = test system: Staphylococcus aureus ΔmprFpRBsyn
[18] = test system: Staphylococcus aureus ΔmprF
[19] = test system: Staphylococcus epidermidis ATCC 12228
Yersinia pestis KIM pYV = test system: Yersinia pestis KIM pYV
[20] = test system: Acinetobacter calcoaceticus
Bacillus cereus = test system: Bacillus cereus
Bacillus pumilus = test system: Bacillus pumilus
[21] = test system: Candida albicans ATCC 2002
Pseudomonas aeruginosa = test system: Pseudomonas aeruginosa
Shigella dysenteriae = test system: Shigella dysenteriae
[22] = test system: Staphylococcus aureus ATCC 2592
Bacillus subtilis BR151 = test system: Bacillus subtilis BR151
[23] = test system: Enterococcus faecium A634
Escherichia coli JM109 = test system: Escherichia coli JM109
[24] = test system: Staphylococcus aureus 1206

MIC (Leuconostoc lactis): 1.16 µM (≈ 3 µg/mL)
MIC (Listeria innocua): 19.3 µM (≈ 50 µg/mL)
MIC (Micrococcus luteus): 9.64 µM (≈ 25 µg/mL)
MIC (Pasteurella multocida): 9.64 µM (≈ 25 µg/mL)
MIC [1]: 2.31 µM (≈ 6 µg/mL)
MIC [2]: 4.63 µM (≈ 12 µg/mL)
MIC [3]: 4.63 µM (≈ 12 µg/mL)
MIC (Streptococcus uberis): 9.64 µM (≈ 25 µg/mL)
SMILES: CC[C@H](C)[C@H](NC(=O)[C@@H](NC(=O)[C@@H]1CCCN1C(=O)[C@@H](NC(=O)[C@@H](NC(=O)[C@H](Cc1cnc[nH]1)NC(=O)[C@@H]1CCCN1C(=O)[C@H](CC(C)C)NC(=O)[C@@H](NC(=O)[C@H](Cc1cnc[nH]1)NC(=O)[C@H](CCCCN)NC(=O)[C@H](C)NC(=O)[C@@H](NC(=O)[C@H](C)NC(=O)CNC(=O)[C@H](CC(C)C)NC(=O)[C@@H](NC(=O)[C@H](CO)NC(=O)[C@H](Cc1ccccc1)NC(=O)[C@H](CC(C)C)NC(=O)CN)C(C)C)C(C)C)C(C)C)C(C)C)C(C)C)C(C)C)C(=O)N[C@@H](C)C(=O)N[C@@H](CCC(=O)O)C(=O)N[C@@H](CCCCN)C(=O)N[C@@H](CC(C)C)C(N)=O [GLFSVLGAVAKHVLPHVVPVIAEKL]
MIC (Pseudomonas haemolytica): 19.3 µM (≈ 50 µg/mL)

MIC (Escherichia coli KF111): 1.31 µM (≈ 4 µg/mL)
MIC (Escherichia coli KF130): 1.31 µM (≈ 4 µg/mL)
MIC (Escherichia coli UB1005): 0.653 µM (≈ 2 µg/mL)
MIC (Escherichia coli): 0.653 µM (≈ 2 µg/mL)
MIC [4]: 5.22 µM (≈ 16 µg/mL)
MIC [5]: 5.22 µM (≈ 16 µg/mL)
MIC [6]: 5.22 µM (≈ 16 µg/mL)
MIC [7]: 2.61 µM (≈ 8 µg/mL)
MIC (Staphylococcus aureus): > 20.9 µM
MIC [3]: 5.22 µM (≈ 16 µg/mL)
SMILES: CC[C@H](C)[C@H](NC(=O)[C@@H]1CCCN1C(=O)[C@H](CCCCN)NC(=O)[C@H](CC(C)C)NC(=O)[C@H](C)NC(=O)[C@@H](NC(=O)[C@H](Cc1cnc[nH]1)NC(=O)[C@H](Cc1ccccc1)NC(=O)[C@@H](NC(=O)[C@@H](NC(=O)[C@H](CCCN=C(N)N)NC(=O)[C@@H](NC(=O)[C@@H]1CCCN1C(=O)[C@H](CO)NC(=O)[C@H](CCCCN)NC(=O)[C@H](Cc1ccccc1)NC(=O)[C@@H](NC(=O)[C@H](CCCN=C(N)N)NC(=O)[C@H](CC(C)C)NC(=O)[C@H](Cc1ccccc1)NC(=O)[C@H](CO)NC(=O)[C@H](CCCCN)NC(=O)[C@H](Cc1c[nH]c2ccccc12)NC(=O)[C@@H](N)CCCCN)[C@@H](C)O)C(C)C)[C@@H](C)O)C(C)C)[C@@H](C)O)C(=O)N[C@@H](CO)C(=O)N[C@@H](CO)C(=O)O [KWKSFLRTFKSPVRTVFHTALKPISS]

SMILES: CC[C@H](C)[C@H](NC(=O)[C@H](CCCN=C(N)N)NC(=O)[C@H](CCCN=C(N)N)NC(=O)[C@H](CC(C)C)NC(=O)[C@H](Cc1ccccc1)NC(=O)[C@@H](NC(=O)[C@H](CCCN=C(N)N)NC(=O)[C@H](CCSC)NC(=O)[C@@H](NC(=O)[C@H](CCCCN)NC(=O)[C@H](CCCCN)NC(=O)[C@H](CS)NC(=O)[C@@H](NC(=O)CNC(=O)[C@H](CCCN=C(N)N)NC(=O)[C@H](CC(C)C)NC(=O)[C@@H](NC(=O)[C@@H](N)CCCCN)[C@@H](C)CC)C(C)C)[C@@H](C)CC)[C@@H](C)O)C(=O)N[C@@H](CO)C(=O)N[C@@H](CCCCN)C(=O)N[C@@H](CC(=O)O)C(=O)N[C@H](C(=O)N[C@@H](CC(C)C)C(=O)N[C@H](C(=O)NCC(=O)N[C@@H](CCCCN)C(=O)N[C@@H](CCCCN)C(N)=O)[C@@H](C)O)[C@@H](C)CC [KILRGVCKKIMRTFLRRISKDILTGKK]
MIC [8]: 0.624 µM (≈ 2 µg/mL)
MIC [9]: 1.25 µM (≈ 4 µg/mL)
MIC [10]: 9.99 µM (≈ 32 µg/mL)
MIC [11]: 5 µM (≈ 16 µg/mL)
MIC [12]: 4 µM (≈ 12.8 µg/mL)
MIC [13]: 8 µM (≈ 25.6 µg/mL)
MIC [14]: 9.99 µM (≈ 32 µg/mL)
MIC [15]: 79.9 µM (≈ 256 µg/mL)
MIC [16]: 2 µM (≈ 6.4 µg/mL)
MIC [17]: 2.5 µM (≈ 8 µg/mL)
MIC [18]: 2.5 µM (≈ 8 µg/mL)
MIC (Staphylococcus aureus): 20 µM (≈ 64 µg/mL)
MIC [19]: 2 µM (≈ 6.4 µg/mL)
MIC (Yersinia pestis KIM pYV): ≥ 79.9 µM

MIC [20]: ≥ 42.7 µM
MIC (Bacillus cereus): ≥ 53.4 µM
MIC (Bacillus pumilus): 5.34 µM (≈ 7.49 µg/mL)
MIC [21]: 3.56 µM (≈ 5 µg/mL)
MIC [11]: 5.34 µM (≈ 7.49 µg/mL)
MIC (Pseudomonas aeruginosa): 3.56 µM (≈ 5 µg/mL)
MIC (Shigella dysenteriae): 14.2 µM (≈ 20 µg/mL)
MIC [22]: 5.34 µM (≈ 7.49 µg/mL)
SMILES: CC[C@H](C)[C@H](NC(=O)[C@@H]1CCCN1C(=O)[C@H](Cc1ccccc1)NC(=O)[C@@H](N)Cc1ccccc1)C(=O)N[C@H](C(=O)NCC(=O)N[C@@H](CCCCN)C(=O)N[C@@H](CC(C)C)C(=O)N[C@@H](CC(C)C)C(=O)N[C@@H](CO)C(=O)NCC(=O)N[C@@H](CC(C)C)C(=O)N[C@@H](CC(C)C)C(N)=O)C(C)C [FFPIVGKLLSGLL]

MIC (Bacillus subtilis BR151): 1.21 µM (≈ 3 µg/mL)
MIC [23]: 20.2 µM (≈ 50 µg/mL)
MIC (Escherichia coli JM109): 2.42 µM (≈ 6 µg/mL)
MIC [24]: 20.2 µM (≈ 50 µg/mL)
SMILES: CCC(C)[C@H](NC(=O)CN)C(=O)NCC(=O)N[C@@H](CCCCN)C(=O)N[C@@H](Cc1ccccc1)C(=O)N[C@@H](CC(C)C)C(=O)N[C@@H](Cc1cnc[nH]1)C(=O)N[C@@H](C)C(=O)N[C@@H](C)C(=O)N[C@@H](CCCCN)C(=O)N[C@@H](CCCCN)C(=O)N[C@@H](Cc1ccccc1)C(=O)N[C@@H](C)C(=O)N[C@@H](CCCCN)C(=O)N[C@@H](C)C(=O)N[C@@H](Cc1ccccc1)C(=O)N[C@H](C(=O)N[C@@H](C)C(=O)N[C@@H](CCC(=O)O)C(=O)N[C@H](C(=O)N[C@@H](CCSC)C(=O)N[C@@H](CC(N)=O)C(=O)N[C@@H](CO)C(N)=O)C(C)CC)C(C)C (stereo not given in full) [GIGKFLHAAKKFAKAFVAEIMNS]
